Experimental data as given in US20190321324A1, “QUATERNARY AMINE ANTIBIOTIC THERAPEUTICS” (BOARD OF REGENTS, THE UNIVERSITY OF TEXAS SYSTEM, priority 2016, published 2019).
≈ marks a conversion by molar mass, not a printed value. Where a name gives a salt, the structure may show the parent alone. Read-outs that look alike come from different tables or passages of the source.

How the values were obtained:
A. baumannii = A. baumannii MIC of clinically used QACs; format: cell-based, Acinetobacter baumannii; settings: for MIC: unit assumed; for Effect of ribosomal mutations on MIC (in words): BAC resistant mutants, S11 and L24 (Mutants 1 and 4); for Prevention of growth (in words): antibiotic resistant and susceptible A. baumannii
Protocol: (§1) The antimicrobial activity of three QACs that have been approved for human use; Bretylium tosylate, Clofilium tosylate, and Otilonium bromide, were tested (FIG. 1). The length of the hydrocarbon tail on BAC is known to strongly influence its behavior. Clofilium tosylate and Otilonium bromide both have hydrocarbon tails that are hypothesized to allow cell envelope penetration. […] Similar activity was determine for these three compounds in S. aureus (Table 2)
BAC, Bretylium tosylate, Clofilium tosylate, and Otilonium bromide are all QACs but with different structures. […] Bretylium tosylate, Clofilium tosylate, and Otilonium bromide were tested on BAC resistant mutants representing mutations in ribosomal proteins S11, L23, L24 and the UTR of the ribosomal operon. […] The MIC to Otilonium bromide was not affected in these mutants.

S. aureus = S. aureus MIC of clinically used QACs; format: cell-based, Staphylococcus aureus; settings: unit assumed
Protocol: as §1

C. difficile = C. difficile minimal bactericidal assay (MBC); format: cell-based, Clostridium difficile; settings: Clostridioides difficile, 20 h, 20 h at 37° C., anaerobic
Protocol: Activity of Otilonium bromide was also tested using two strains of C. difficile, 43255 and 630 (MDR). The minimal bactericidal assay was performed using 5×10^5 C. difficile bacteria where incubated with vancomycin or OB at the indicated concentrations for 20 h at 37° C. in an anaerobic chamber. The total volume per well in BHIS medium was 100 μl and 5 μL was spotted on RCM medium and plates were incubated for 24 h. The MBC is identified as the concentration of compound the reduced cfu to single or no numbers.

A. baumannii lon mutant = experiment: Sensitivity of A. baumannii lon mutant to Otilonium bromide treatment; format: cell-based, Acinetobacter baumannii

Molecule	MIC (A. baumannii; BAC resistant Mutant 1 (20))	MIC (A. baumannii; BAC resistant Mutant 4 (23))	MIC (A. baumannii; BAC resistant Mutant 7 (19))	MIC (A. baumannii; BAC resistant Mutant 8 (3))	Effect of ribosomal mutations on MIC (in words) (A. baumannii)	Prevention of growth (in words) (A. baumannii)	MIC compared with BAC (A. baumannii; strain 17978)	MIC (A. baumannii; strain 17978)	MIC (A. baumannii; strain AYE (MDR))	MIC (S. aureus; strain MU50 (MDR))	MIC (S. aureus; strain Newman)	MBC (C. difficile; strain 630 (MDR), read-out: MBC)	MBC (C. difficile; strain 43255, read-out: MBC)	Sensitivity of lon mutant (in words) (A. baumannii lon mutant)	MBC (C. difficile; strain 630 (MDR))	MBC (C. difficile; strain 43255)
CCCCCCCCOc1ccccc1C(=O)Nc1ccc(C(=O)OCC[N+](C)(CC)CC)cc1.[Br-] [Otilonium bromide]	16 mg/L	16 mg/L	16 mg/L	16 mg/L	not affected	prevent growth	equivalent to that of BAC	16 mg/L	16 mg/L	4 mg/L	2 mg/L	2 mg/L	1 mg/L	highly sensitized	–	–
CC[N+](C)(C)Cc1ccccc1Br [Bertylium tosylate, Bretylium tosylate]	> 256 mg/L	> 256 mg/L	> 256 mg/L	> 256 mg/L	–	did not show activity	–	> 256 mg/L	> 256 mg/L	> 256 mg/L	> 256 mg/L	–	–	–	–	–
Clofilium tosylate	–	–	256 mg/L	256 mg/L	increased resistance	prevent growth	–	128 mg/L	128 mg/L	32 mg/L	16 mg/L	–	–	–	–	–
CN[C@H](CC(C)C)C(=O)N[C@H]1C(=O)N[C@@H](CC(N)=O)C(=O)N[C@H]2C(=O)N[C@H]3C(=O)N[C@H](C(=O)N[C@H](C(=O)O)c4cc(O)cc(O)c4-c4cc3ccc4O)[C@H](O)c3ccc(c(Cl)c3)Oc3cc2cc(c3O[C@@H]2O[C@H](CO)[C@@H](O)[C@H](O)[C@H]2O[C@H]2C[C@](C)(N)[C@H](O)[C@H](C)O2)Oc2ccc(cc2Cl)[C@H]1O [Vancomycin]	–	–	–	–	–	–	–	–	–	–	–	–	–	–	~2 mg/L (≈ 1.38 µM)	1 mg/L (≈ 0.69 µM)
